Measurements as given in article PMC10376326, “Novel Acylselenourea Derivatives: Dual Molecules with Anticancer and Radical Scavenging Activity” (Antioxidants, 2023).

Key:
[1] = DPPH radical scavenging assay; type: biochemical; settings: for DPPH Inhibitory%: acylselenourea analogs
Protocol: Different methods are available to quantify the antioxidant capacity of natural or novel molecules. Notable among these are the ABTS^•+ and DPPH^• methods, which measure the quenching efficiency in vitro for known concentrations of preformed radicals. In this work, the DPPH^• colorimetric assay was carried out. Measurements were recorded on a BioTeck PowerWave XS spectrophotometer (BioTeck Instruments, Winooski, VT, USA) and data were collected using KCJunior v.1.41. software (BioTeck Instruments, Winooski, VT, USA). Compounds with potent activity were selected to further determine their protective effect against ROS-induced cell death caused by H2O2.
DPPH colorimetric assay was performed to determine the in vitro radical scavenging activity of the acylselenourea derivatives. DPPH assay was performed as described by Svinyarov. For each acylselenourea, a stock solution of 1 mg/mL in dimethyl sulfoxide (DMSO) was made, and these solutions were used to prepare the different concentrations employed in the assay. The compounds were tested at two different concentrations (0.003 and 0.03 mg/mL). Intermediate solutions were prepared in methanol and a volume of 100 µL of each was added to each well of the plate. Then, 100 µL of DPPH^• (previously prepared at a concentration of 0.04 mg/mL in methanol and preserved in the dark) was added to the previous methanolic acylselenourea solutions. The discoloration of the purple radical to the yellow reduced form was followed at 517 nm at different time points (0, 5, 15, 30, 60, 90, and 120 min). Ascorbic acid and trolox were used as positive controls. All measurements were carried out in triplicate. Results are expressed as the percentage of the radicals scavenged, calculated using the following formula: (1) % DPPH radical scavenging=Acontrol - Asample/Acontrol × 100 where Acontrol refers to the absorbance of the negative control and Asample refers to the absorbance of the tested compounds. Results are expressed as percentage of DPPH radical scavenging ± SD.

[2] = test system: HTB-54 (lung) cancer cell line; experiment: MTT cell viability assay, HTB-54; type: cell-based, human; settings: Homo sapiens, HTB-54, 48 h; for activity at 10 µM: read-out: Cell growth %, HTB-54, 10 µM, 48 h, MTT; for activity at 50 µM: read-out: Cell growth %, HTB-54, 50 µM, 48 h, MTT
Protocol: (§1) Cell lines were purchased from the American Type Culture Collection (ATCC). Cell lines MDA-MB-231, HTB-54, DU-145, and BEAS-2B were cultured in RPMI 1640 medium (Gibco, Thermo Fisher Scientific, Gaithersburg, MD, USA) supplemented with 10% fetal bovine serum (FBS; Gibco), 100 units/mL penicillin, and […] streptomycin (Gibco). HT-29 cell line was grown in McCoy’s 5A (Gibco), 10% FBS, 100 units/mL penicillin, and 100 μg/mL streptomycin. Cells were maintained at 37 °C and 5% CO2. The culture medium was changed every three days.
(§2) The cell viability of each compound was measured by MTT colorimetric assay. Each compound was dissolved in DMSO at a concentration of 0.01 M. Each compound was tested at two different concentrations (10 and 50 µM) in MDA-MB-231 (breast), HTB-54 (lung), DU-145 (prostate), and HT-29 (colon) human cancer cell lines. Serial dilutions were prepared with supplemented culture medium. […] IC50 and selectivity indexes (SI) were determined.
(§3) Briefly, 1 × 10^4 tumor cells per well were grown in 96-well plates for 24 h. Then, these cells were incubated for 48 h with either DMSO (control) or a different concentration of each of the tested compounds. The cell viability was determined by adding 20 μL of MTT two hours and a half before the termination point. After this time, the culture medium was removed. The resulting formazan crystals were dissolved in 50 μL of DMSO, and the absorbance was measured at 570 nm. Results are expressed as % cell growth. The data were obtained from at least three independent experiments performed in quadruplicate.

[3] = test system: MDA-MB-231 (breast) cancer cell line; experiment: MTT cell viability assay, MDA-MB-231; type: cell-based, human; settings: Homo sapiens, MDA-MB-231, 48 h; for activity at 10 µM: read-out: Cell growth %, MDA-MB-231, 10 µM, 48 h, MTT; for activity at 50 µM: read-out: Cell growth %, MDA-MB-231, 50 µM, 48 h, MTT
Protocol: as §1, §2, §3

[4] = test system: DU-145 (prostate) cancer cell line; experiment: MTT cell viability assay, DU-145; type: cell-based, human; settings: Homo sapiens, DU-145, 48 h; for activity at 10 µM: read-out: Cell growth %, DU-145, 10 µM, 48 h, MTT; for activity at 50 µM: read-out: Cell growth %, DU-145, 50 µM, 48 h, MTT
Protocol: as §1, §2, §3

[5] = test system: HT-29 (colon) cancer cell line; experiment: MTT cell viability assay, HT-29; type: cell-based; settings: Homo sapiens, HT-29, 48 h, read-out: Cell growth %; for activity at 10 µM: HT-29, 10 µM; for activity at 50 µM: HT-29, 50 µM
Protocol: as §1, §2, §3

DU-145 cells = experiment: Protective effects against H2O2-induced oxidative stress in DU-145 cells (MTT); type: cell-based, human; settings: for Cell growth inhibition (%): cells without compounds; for Increase-fold: increase-fold of cell survival
Protocol: Cells were treated with the selected compounds and then oxidative damage to DU-145 cells was induced using different concentrations of H2O2 (200, 250 and 300 µM), and cell viability was assessed by the MTT method. Briefly, 2.5 × 10^4 DU-145 cells per well were added in 96-well plates. After 24 h of incubation, DMSO, 1.I, 2.I, 5.I, 7.II, 10.II, and ascorbic acid were added to each well at two different concentrations (0.0015 mg/mL and 0.0003 mg/mL) and incubated for 1 h. After that, H2O2 was added at the concentrations of 200, 250, and 300 µM, and the cells were incubated for 12 h to induce cell damage. MTT assay was used to measure cell viability. For each treatment, the mean cell viability was calculated from three independent experiments. The DMSO-treated controls were assigned with a cell viability value of 100% (Vcontrol). The results are expressed as a cell growth inhibition % caused by H2O2 and the increased fold of cell survival, as follows: • Cells without compounds, only treated with H2O2: (2) % Cell growth inhibition=Acontrol - Asample/Acontrol × 100
• Cells treated with compounds and H2O2:
(3) % Cell growth inhibition=Asample (compound) - Asample (compound+H2O2)/Acontrol × 100
(4) Increase-fold of cell survival=% cell growth inhibition (H2O2)/% cell growth inhibition (compound+ H2O2)
The standard error of the mean (SEM) was calculated in at least three independent experiments performed in quadruplicates.

SMILES	inhibition ([1]; 0.003 mg/mL, 0 min) [%]	inhibition ([1]; 0.003 mg/mL, 5 min) [%]	inhibition ([1]; 0.003 mg/mL, 15 min) [%]	inhibition ([1]; 0.003 mg/mL, 30 min) [%]	inhibition ([1]; 0.003 mg/mL, 60 min) [%]	inhibition ([1]; 0.003 mg/mL, 90 min) [%]	inhibition ([1]; 0.003 mg/mL, 120 min) [%]	inhibition ([1]; 0.03 mg/mL, 0 min) [%]	inhibition ([1]; 0.03 mg/mL, 5 min) [%]	inhibition ([1]; 0.03 mg/mL, 15 min) [%]	inhibition ([1]; 0.03 mg/mL, 30 min) [%]	inhibition ([1]; 0.03 mg/mL, 60 min) [%]	activity at 10 µM [2] [%]	activity at 50 µM [2] [%]	activity at 10 µM [3] [%]	activity at 50 µM [3] [%]	activity at 10 µM [4] [%]	activity at 50 µM [4] [%]	activity at 10 µM [5] [%]	inhibition ([1]; 0.03 mg/mL, 120 min) [%]	further results
C=CCNC(=[Se])NC(=O)c1cccs1 [Compound 2.II, N-(allylcarbamoselenoyl)thiophene-2-carboxamide]	0	6.4 ± 1.1	10.4 ± 1.2	13 ± 1.2	15.2 ± 1.2	16 ± 1.2	16.3 ± 1.2	24.4 ± 3	60.7 ± 2.5	75.8 ± 3.5	87.6 ± 4	96.7 ± 0.7	35.9 ± 12.1	8.52 ± 4.8	79.9 ± 9.6	11.1 ± 5.9	63.4 ± 5.6	7.33 ± 4.6	107 ± 16.2		time to reach the highest DPPH inhibition ([1]; 0.03 mg/mL): 60 min; DPPH Inhibitory% ([1]; 0.03 mg/mL, 90 min): 97.3 ± 0.8%; activity at 50 µM [5]: 26.2 ± 5.1%
C=CCNC(=O)c1cccc(C(=O)NC(=[Se])NCC=C)c1 [Compound 11.II, N^1-allyl-N^3-(allylcarbamoselenoyl)isophthalamide]	0	2.5 ± 1.4	5.8 ± 1.2	8.6 ± 0.9	11.6 ± 1	12.8 ± 0.8	13.5 ± 0.7	11 ± 3	38.5 ± 0.3	56.8 ± 0.6	70.1 ± 1	83 ± 1	48.3 ± 6.9	5.94 ± 4.7	77.1 ± 10.1	14.7 ± 7.8	93.8 ± 8	22 ± 5.8	88.1 ± 4.8	94.3 ± 1.2	inhibition ([1]; 0.03 mg/mL, 90 min): 89.6 ± 1.2%; activity at 50 µM [5]: 30.8 ± 4%
C#CCNC(=[Se])NC(=O)c1ccco1 [Compound 1.III, N-(prop-2-in-1-ylcarbamoselenoyl)furan-2-carboxamide]	1.5 ± 0.7	3.4 ± 0.6	4.9 ± 0.7	6.5 ± 0.7	8.5 ± 1	9.6 ± 0.9	10 ± 0.8	11.8 ± 1.7	15.2 ± 4.4	23.5 ± 3.9	31.2 ± 3.7	40.9 ± 4.3	76 ± 4.8	48 ± 4.2	66.3 ± 16.7	17.6 ± 9.3	42.4 ± 4.8	15.2 ± 1.2	84 ± 16.8	48.1 ± 0.4	DPPH Inhibitory% ([1]; 0.03 mg/mL, 90 min): 42.6 ± 0.6%; activity at 50 µM [5]: 17.2 ± 4.2%
OO [Compound H2O2, H2O2, reference compound]																					Cell growth inhibition (%) (DU-145 cells; only treated with 200 µM H2O2, DU-145, 12 h): 36.9 ± 6.9%; Cell growth inhibition (%) (DU-145 cells; only treated with 250 µM H2O2, DU-145, 12 h): 53.4 ± 6.1%; Cell growth inhibition (%) (DU-145 cells; only treated with 300 µM H2O2, DU-145, 12 h): 66.8 ± 6.3%
O=C1O[C@H]([C@@H](O)CO)C(O)=C1O [Asc. Acid, ascorbic acid, reference compound]	33.5 ± 0.5	33.6 ± 0.4	34.5 ± 1.6	34.1 ± 1.1	34 ± 0.9	34 ± 0.8	34 ± 0.7	96.4 ± 0.2	96.4 ± 0.1	96.9 ± 0.5	96.9 ± 0.5	96.6 ± 0.1								96.6 ± 0.1	inhibition ([1]; 0.03 mg/mL, 90 min): 96.6 ± 0.1%; Increase-fold (DU-145 cells; compound 0.0003 mg/mL, 200 µM H2O2, DU-145): 4.2 ± 0.4; Increase-fold (DU-145 cells; compound 0.0003 mg/mL, 250 µM H2O2, DU-145): 3.1 ± 0.7; Increase-fold (DU-145 cells; compound 0.0003 mg/mL, 300 µM H2O2, DU-145): 2.2 ± 0.1; Increase-fold (DU-145 cells; compound 0.0015 mg/mL, 200 µM H2O2, DU-145): 3.6 ± 0.3; Increase-fold (DU-145 cells; compound 0.0015 mg/mL, 250 µM H2O2, DU-145): 2.9 ± 0.7; Increase-fold (DU-145 cells; compound 0.0015 mg/mL, 300 µM H2O2, DU-145): 1.5 ± 0.2
Cc1c(C)c2c(c(C)c1O)CCC(C)(C(=O)O)O2 (stereo not shown) [Trolox, trolox, reference compound]	28.4 ± 1	29.2 ± 1	29.2 ± 0.9	29.2 ± 0.8	29.2 ± 0.8	29.2	29.1	90.8 ± 2.3	96.3 ± 0.1	96.3 ± 0.2	96.3 ± 0.2	96.2 ± 0.2								96.2 ± 0.2	inhibition ([1]; 0.03 mg/mL, 90 min): 96.2 ± 0.2%
C#CCNC(=[Se])NC(=O)c1ccccc1 [Compound 5.III, N-(prop-2-in-1-ylcarbamoselenoyl)benzamide]	0.6 ± 1.2	2.9 ± 1	5.1 ± 1.3	7.2 ± 1.6		11.3 ± 2	12.3 ± 2.1	9.3 ± 1	9.8 ± 0.3	23 ± 0.3	34 ± 0.6	46.6 ± 0.9	76 ± 4.8	33.4 ± 8.6	78.5 ± 12	33.3 ± 6.5	80.8 ± 7.4	26.3 ± 6.5	70 ± 8.7	60.2 ± 0.7	DPPH Inhibitory% ([1]; 0.03 mg/mL, 90 min): 54.6 ± 0.8%; activity at 50 µM [5]: 33.9 ± 4.5%
